Laboratory results: publication PMC2585982 (Toxicology and applied pharmacology, 2008)
“And” between values parts separate entries of the source, which are not always exact repeats. Equal entries are not always repeated.

What was measured:
PXR [1] = target: T1, PXR (Mus musculus, UniProt O54915); experiment: PXR-DR3 reporter assay; format: cell-based
T1 sequence (O54915 1-431): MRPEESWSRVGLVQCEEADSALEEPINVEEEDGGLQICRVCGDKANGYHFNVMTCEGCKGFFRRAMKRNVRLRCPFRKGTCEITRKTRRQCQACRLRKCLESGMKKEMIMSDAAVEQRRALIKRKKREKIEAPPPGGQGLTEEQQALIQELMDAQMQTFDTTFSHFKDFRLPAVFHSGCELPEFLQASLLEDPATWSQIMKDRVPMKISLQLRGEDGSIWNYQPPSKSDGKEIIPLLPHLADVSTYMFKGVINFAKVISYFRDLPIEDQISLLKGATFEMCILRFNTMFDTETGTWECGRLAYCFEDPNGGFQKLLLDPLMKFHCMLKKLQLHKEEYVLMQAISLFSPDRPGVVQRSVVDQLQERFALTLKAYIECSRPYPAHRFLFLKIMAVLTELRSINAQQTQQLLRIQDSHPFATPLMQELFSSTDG
T1 sequence (P19793 1-462 partner): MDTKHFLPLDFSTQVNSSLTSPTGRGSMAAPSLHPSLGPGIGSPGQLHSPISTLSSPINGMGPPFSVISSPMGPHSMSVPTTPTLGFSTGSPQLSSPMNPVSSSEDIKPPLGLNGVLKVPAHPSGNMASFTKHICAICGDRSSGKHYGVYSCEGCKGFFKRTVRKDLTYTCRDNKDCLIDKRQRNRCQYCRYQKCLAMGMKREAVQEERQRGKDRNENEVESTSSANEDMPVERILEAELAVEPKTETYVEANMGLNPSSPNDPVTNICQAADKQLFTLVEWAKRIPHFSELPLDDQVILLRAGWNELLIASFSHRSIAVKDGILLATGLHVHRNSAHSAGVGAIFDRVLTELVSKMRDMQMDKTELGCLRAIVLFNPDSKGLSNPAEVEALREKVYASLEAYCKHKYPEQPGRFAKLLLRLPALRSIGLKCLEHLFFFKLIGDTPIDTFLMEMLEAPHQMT

P450 2B10 = details: mouse, in vivo
GSTμ = experiment: Western blot of liver cytosol, GSTμ protein expression; format: in vivo, mice; details: SENCAR mice, 35, 70, 150 mg/kg p.o.
[2] = test system: GST (cumene hydroperoxide); experiment: Liver GST activity, cumene hydroperoxide as substrate, after oral dosing of mice; format: in vivo; details: female SENCAR mice, even at the highest doses, data not shown
P450s 2B9/10 [3] = experiment: Liver microsomal P450 2B activity; format: in vivo, mice; details: mouse, in vivo
P450 3A11 [4] = experiment: Liver microsomal P450 3A activity; format: in vivo, mice; details: mouse, in vivo
P450s 1A1/2 = experiment: Liver microsomal P450 1A activity; format: in vivo, mice; details: mouse, in vivo
GSTπ = experiment: Western blot of liver cytosol, GSTπ protein expression; format: in vivo; details: SENCAR mice, 35, 70, 150 mg/kg p.o.
GSTα = experiment: Western blot of liver cytosol, GSTα protein expression; format: in vivo; details: SENCAR mice, 35, 70, 150 mg/kg p.o., particularly at the highest doses
SXR [5] = target: SXR (Homo sapiens, UniProt O75469); experiment: SXR-DR3 reporter assay; format: cell-based
Target sequence in this assay (O75469 whole entry, one chain of several): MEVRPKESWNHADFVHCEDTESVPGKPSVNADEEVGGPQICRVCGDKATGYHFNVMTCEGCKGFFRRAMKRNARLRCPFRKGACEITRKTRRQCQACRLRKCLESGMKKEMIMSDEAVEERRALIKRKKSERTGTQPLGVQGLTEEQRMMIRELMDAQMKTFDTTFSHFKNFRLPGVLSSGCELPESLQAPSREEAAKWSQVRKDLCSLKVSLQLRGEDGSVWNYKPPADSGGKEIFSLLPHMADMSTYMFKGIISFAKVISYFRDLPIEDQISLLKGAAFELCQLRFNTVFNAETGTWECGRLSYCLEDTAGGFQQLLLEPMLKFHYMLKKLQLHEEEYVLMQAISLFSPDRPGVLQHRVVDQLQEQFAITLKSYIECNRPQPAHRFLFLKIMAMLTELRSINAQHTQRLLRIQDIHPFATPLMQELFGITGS

P450 3A11 [6] = details: mouse, in vivo, po, 100 mg/kg
Cyp2b10 mRNA = experiment: Northern blot of liver RNA, Cyp2b10 mRNA in CAR; details: isopimpinellin 150 mg/kg p.o. 24 h, TC 3 mg/kg i.p. 6 h
P450 = experiment: Liver microsomal P450 content after oral dosing of mice; format: in vivo; details: C57BL/6 mice, 100 mg/kg p.o. 3 days, vs corn oil
GST (DCNB, GST μ) = experiment: Liver cytosolic GST activity, DCNB as substrate, after oral dosing of mice; format: in vivo; details: C57BL/6 mice, 100 mg/kg p.o. 3 days, vs corn oil
SXR [7] = target: T2, SXR (Homo sapiens, UniProt O75469); experiment: GAL-SXR reporter assay; format: cell-based
T2 sequence (O75469 146-433 limits assumed): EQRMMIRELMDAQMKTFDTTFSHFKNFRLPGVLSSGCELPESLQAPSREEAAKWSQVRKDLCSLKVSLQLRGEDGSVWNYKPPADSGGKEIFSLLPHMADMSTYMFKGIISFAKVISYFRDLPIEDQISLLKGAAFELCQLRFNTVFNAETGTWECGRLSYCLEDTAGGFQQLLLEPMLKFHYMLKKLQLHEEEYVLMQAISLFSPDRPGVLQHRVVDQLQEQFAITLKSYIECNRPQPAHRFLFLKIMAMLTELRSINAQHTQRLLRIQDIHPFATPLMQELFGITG

PXR [8] = target: T3, PXR (Mus musculus, UniProt O54915); experiment: GAL-PXR reporter assay; format: cell-based
T3 sequence (O54915 143-430 limits assumed): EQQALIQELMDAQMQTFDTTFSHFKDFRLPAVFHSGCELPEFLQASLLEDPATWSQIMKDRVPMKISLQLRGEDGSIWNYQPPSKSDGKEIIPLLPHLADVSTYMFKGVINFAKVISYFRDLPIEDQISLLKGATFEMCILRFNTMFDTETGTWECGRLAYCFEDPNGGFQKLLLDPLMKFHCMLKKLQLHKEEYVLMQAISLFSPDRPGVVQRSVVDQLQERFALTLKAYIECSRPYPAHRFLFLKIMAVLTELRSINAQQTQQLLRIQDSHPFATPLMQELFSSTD

P450s 2B9/10 [9] = details: mice treated 3 consecutive days; ref Kleiner et al., 2001; cited from earlier work
GSTp mRNA = experiment: Northern blot of liver RNA, GSTp mRNA in CAR; format: in vivo, mice; details: isopimpinellin 150 mg/kg p.o. 24 h; TC 3 mg/kg i.p. 6 h
SXR and SRC-1 RID = SXR and SRC-1 RID (Homo sapiens, UniProt O75469); experiment: Mammalian two-hybrid assay, Gal-SRC-1 RID + VP-L-SXR in CV-1 cells; format: cell-based; details: isopimpinellin 50 μM, RIF 10 μM
Chain of SXR and SRC-1 RID (Q15788 570-780 partner limits assumed, one chain of several): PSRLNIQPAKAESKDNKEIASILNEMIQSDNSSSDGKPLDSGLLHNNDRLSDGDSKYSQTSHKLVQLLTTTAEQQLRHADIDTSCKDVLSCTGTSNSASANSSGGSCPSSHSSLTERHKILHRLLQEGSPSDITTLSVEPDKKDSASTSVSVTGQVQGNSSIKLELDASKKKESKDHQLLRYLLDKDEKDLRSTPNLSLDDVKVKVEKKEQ

P450 1A1/1A2 = details: mouse, in vivo

## COc1c2ccoc2c(OC)c2oc(=O)ccc12 [isopimpinellin, 5,8-dimethoxypsoralen]
PXR [1]
  EC50: 15.8 µM
PXR [1]; CV-1 cells, full length PXR
  Max (concentration to reach maximal effect), PXR-DR3: 30,000 nM
P450 2B10
  Increase in P450 2B9/10 protein expression (optical density), dose-response study: 2–3 fold
  P450 2B10 protein levels, dose-response study: significantly elevated
P450 2B10; po, 100 mg/kg
  P450 2B10 protein expression (western blot densitometry): increased
GSTμ
  Hepatic expression of GST μ protein, dose-response study: no increase
[2]
  GST activity using cumene hydroperoxide as a substrate: no differences
P450s 2B9/10 [3]
  Increase in P450 2B9/10 enzyme activity, dose-response study: 300 fold
  P450 2B activity, liver microsomes, dose-response study: significant increases
P450s 2B9/10 [3]; po, 100 mg/kg
  Increase in P450 2B activity (pentoxyresorufin), liver microsomes: ~ 5 fold
P450 3A11 [4]
  P450 3A activity, liver microsomes, dose-response study: increased
P450 3A11 [4]; po, 100 mg/kg
  Increase in P450 3A activity (testosterone), liver microsomes: 3–4 fold
P450s 1A1/2
  P450 1 activity, liver microsomes, dose-response study: significant increases
GSTπ
  Hepatic expression of GST π protein, dose-response study: modest increase
GSTα
  Hepatic expression of GST α protein, dose-response study: greatly increased
SXR [5]
  EC50: 39.8 µM
SXR [5]; CV-1 cells, full length SXR
  Max (concentration to reach maximal effect), SXR-DR3: 100,000 nM
P450 3A11 [6]
  P450 3A11 protein expression (western blot densitometry): increased
Cyp2b10 mRNA
  Induction of hepatic Cyp2b10 mRNA, CAR(−/−) mice: attenuated
Cyp2b10 mRNA; male and female
  Induction of hepatic Cyp2b10 mRNA, CAR(+/+) mice: ~ 4 fold
P450
  P450 content, liver microsomes: increased
GST (DCNB, GST μ)
  GST activity using DCNB as a substrate, liver cytosol: highest increase
SXR [7]
  EC50: ~35 µM
SXR [7]; CV-1 cells, 18–24 h
  Max (concentration to reach maximal effect), GAL-SXR: 100,000 nM
SXR [7]; ED50, GAL-SXR activation, CV-1 cells, 18–24 h, luciferase normalized by β-gal
  EC50: 35.5 µM
SXR [7]; GAL-SXR reporter system
  Concentration to reach maximal effect, times higher than RIF: 10 times
PXR [8]
  EC50: ~17 µM
PXR [8]; CV-1 cells, 18–24 h
  Max (concentration to reach maximal effect), GAL-PXR: 100,000 nM
PXR [8]; ED50, GAL-PXR activation, CV-1 cells, 18–24 h, luciferase normalized by β-gal
  EC50: 18 µM and 17.8 µM
PXR [8]; GAL-PXR reporter system
  Concentration to reach maximal effect, times higher than PCN: 30 times
P450s 2B9/10 [9]
  Hepatic P450 2B9/10 activity at 1 h after the final dose: no elevation
  Increase in hepatic P450 2B9/10 activity at 24 h after the final dose: 100 fold
GSTp mRNA
  Increase in hepatic GSTp mRNA, CAR(−/−) mice: ≥ 5 fold
  Increase in hepatic GSTp mRNA, female CAR(+/+) mice: ~ 8 fold
SXR and SRC-1 RID
  Induced interaction of receptor LBD and SRC-1 (Figure 7B): ~ 2 fold
P450 1A1/1A2
  P450 1A1/1A2 protein levels, dose-response study: elevated
P450 1A1/1A2; po, 100 mg/kg
  P450 1A1/1A2 protein expression (western blot densitometry): increased
